The values that follow are results of earlier work, collected in US10058616B2, “Pharmaceutical compositions to reduce complications of ocular steroid” (TAIWAN LIPOSOME COMPANY, LTD., priority 2012, dated 2018).

Like-named read-outs stand apart in the source and are kept apart here.

Take “dexamethasone sodium phosphate [Non-associated DSP]”: the “half-life in the vitreous humor” value was “about 3.5 hours”.
For `CC1(C)O[C@@H]2C[C@H]3[C@@H]4CCC5=CC(=O)C=C[C@]5(C)[C@@]4(F)[C@@H](O)C[C@]3(C)[C@]2(C(=O)CO)O1` [triamcinolone acetonide], in the series on patients (after intravitreal steroid injection), the “progression of cataract, patients” value is 22.72%. The “incidence of increased IOP after intravitreal steroid injection” value in the series on patients (at 3 months) is listed as 75%; in the series on patients (at 6 months), 47.05%; in the series with patients (at one month), 57.69%.
